Measured values from patent US12275744B2, “Pyrazole and imidazole derivatives, compositions and methods as orexin antagonists” (HAGER BIOSCIENCES, LLC, priority 2019, dated 2025).

Experiments:
human orexin-2 receptor = molecular target: T1, human orexin-2 receptor (Homo sapiens, UniProt O43614); experiment: Intracellular calcium measurement (FLIPR), antagonism of orexin-A response in CHO cells expressing OX2R; settings: for inhibition at 1 µM: CHO, read-out: % Inhibition of OX2R @1 uM compound
T1 sequence (O43614 1-444): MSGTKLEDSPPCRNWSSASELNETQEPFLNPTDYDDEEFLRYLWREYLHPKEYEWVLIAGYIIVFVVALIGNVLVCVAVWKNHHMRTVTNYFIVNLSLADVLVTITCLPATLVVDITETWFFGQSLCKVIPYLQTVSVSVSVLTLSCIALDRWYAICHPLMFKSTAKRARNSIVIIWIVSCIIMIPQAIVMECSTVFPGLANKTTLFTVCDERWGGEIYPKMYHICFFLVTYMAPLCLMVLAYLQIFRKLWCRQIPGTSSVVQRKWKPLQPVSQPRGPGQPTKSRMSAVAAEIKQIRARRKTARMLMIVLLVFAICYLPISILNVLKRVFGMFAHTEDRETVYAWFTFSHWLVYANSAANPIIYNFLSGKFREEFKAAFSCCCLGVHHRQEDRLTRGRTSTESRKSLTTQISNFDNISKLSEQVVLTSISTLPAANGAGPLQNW
Method: (§1) In Vitro Assay: Intracellular Calcium Measurements:
(§2) Chinese hamster ovary (CHO) cells expressing the human orexin-1 receptor and the human orexin-2 receptor, respectively, are grown in culture medium (Ham F-12 with L-Glutamine) containing 300 μg/mL G418, 100 U/mL penicillin, 100 μg/mL streptomycin and 10% heat inactivated fetal calf serum (FCS). The cells are seeded at 20,000 cells/well into 384-well black clear bottom sterile plates (Greiner). The seeded plates are incubated overnight at 37° C. in 5% CO2.
(§3) Within the Fluorescent Imaging Plate Reader (FLIPR Tetra, Molecular Devices), antagonists are added to the plate in a volume of 10 μL/well, incubated for 120 min and finally 10 μL/well of agonist is added. Fluorescence is measured for each well at 1 second intervals, and the height of each fluorescence peak is compared to the height of the fluorescence peak-induced by 3 nM orexin-A with vehicle in place of antagonist. […] Optimized conditions were achieved by adjustment of pipetting speed and cell splitting regime. The calculated IC50 values may fluctuate depending on the daily cellular assay performance.

human orexin-1 receptor = molecular target: T2, human orexin-1 receptor (Homo sapiens, UniProt O43613); experiment: Intracellular calcium measurement (FLIPR), antagonism of orexin-A response in CHO cells expressing OX1R; settings: for inhibition at 1 µM: CHO, read-out: % Inhibition of OX1R @1 uM compound
T2 sequence (O43613 1-425): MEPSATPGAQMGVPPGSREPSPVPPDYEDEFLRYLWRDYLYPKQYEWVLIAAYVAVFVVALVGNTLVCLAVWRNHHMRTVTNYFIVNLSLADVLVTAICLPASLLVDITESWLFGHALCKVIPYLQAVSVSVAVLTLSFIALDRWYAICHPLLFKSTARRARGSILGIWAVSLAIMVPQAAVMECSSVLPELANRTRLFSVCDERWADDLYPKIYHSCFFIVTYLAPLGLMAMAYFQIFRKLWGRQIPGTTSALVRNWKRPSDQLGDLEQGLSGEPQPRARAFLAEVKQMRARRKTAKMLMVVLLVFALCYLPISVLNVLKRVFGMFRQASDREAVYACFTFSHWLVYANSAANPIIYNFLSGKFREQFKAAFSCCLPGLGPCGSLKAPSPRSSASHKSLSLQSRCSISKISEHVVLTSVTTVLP
Method: as §1, §2, §3

OX1R = molecular target: T3, OX1R (Homo sapiens, UniProt O43613); settings: relative to Orexin B; Kodadek and Cai 2010; cited from earlier work
T3 sequence (O43613 1-425): T2 sequence (O43613 1-425)

inhibition at 1 µM (human orexin-2 receptor) [%] | IC50 (human orexin-1 receptor) [nM] | Kb (human orexin-1 receptor) [nM] | inhibition at 1 µM (human orexin-1 receptor) [%] | IC50 (human orexin-2 receptor) [nM] | Kb (human orexin-2 receptor) [nM] | Compound | affinity for OX1R, higher than Orexin B (OX1R)
12.8 | – | – | 85.7 | – | – | CCc1cnc(NC[C@@H]2[C@H](C)CCCN2C(=O)c2c(-c3ccccc3)nn3ccccc23)nc1 [Example 4] | –
-2.51 | 59 | 12 | 76.8 | – | – | CCc1cnc(NC[C@@H]2[C@H](C)CCCN2C(=O)c2c(-c3ccccc3)nc3ccccn23)nc1 [Example 9] | –
21.6 | 39 | 8 | 67.1 | – | – | O=C(c1c(-c2ccccc2)nc2ccccn12)N1CCC[C@H]1CNc1ccc(C(F)(F)F)cn1 [Example 11] | –
46.1 | 2 | 0.5 | 88.9 | – | – | O=C(c1c(-c2ccccc2)nc2ccccn12)N1CCC[C@H]1Cn1ccc(-c2ccccc2)n1 [Example 12] | –
18.3 | – | – | 14.8 | – | – | CCc1cnc(NC[C@@H]2CCCN2C(=O)c2c(-c3ccccc3)nc3ccccn23)nc1 [Example 14] | –
37.3 | 178 | 37 | 54.1 | – | – | CCc1cnc(NC[C@@H]2CCCN2C(=O)c2c(-c3ccccc3)nn3ccccc23)nc1 [Example 15] | –
7.77 | – | – | 0.59 | – | – | CCc1cnc(OC[C@@H]2CCCN2C(=O)c2c(-c3ccccc3)nn3c2COCC3)nc1 [Example 16] | –
29.6 | 293 | 62 | 70 | – | – | O=C(c1c(-c2ccccc2)nc2ccccn12)N1CCC[C@H]1COc1ccc(C(F)(F)F)cn1 [Example 18] | –
11.2 | – | – | -10.8 | – | – | CCc1cnc(OC[C@@H]2CCCN2C(=O)c2c(-c3ccccc3)nc3ccccn23)nc1 [Example 19] | –
26.9 | – | – | 38.8 | – | – | CCc1cnc(OC[C@@H]2CCCN2C(=O)c2c(-c3ccccc3)nn3ccccc23)nc1 [Example 21] | –

Continued, compound first:

Compound | inhibition at 1 µM (human orexin-2 receptor) [%] | IC50 (human orexin-1 receptor) [nM] | Kb (human orexin-1 receptor) [nM] | inhibition at 1 µM (human orexin-1 receptor) [%] | IC50 (human orexin-2 receptor) [nM] | Kb (human orexin-2 receptor) [nM] | affinity for OX1R, higher than Orexin B (OX1R)
O=C(c1c(-c2ccccc2)nn2c1COCC2)N1CCC[C@H]1Cn1ccc(-c2ccccc2)n1 [Example 1] | 28.2 | 33 | 7 | 69.7 | – | – | –
O=C(c1c(-c2ccccc2)nn2c1COCC2)N1CCC[C@H]1CNc1ccc(C(F)(F)F)cn1 [Example 2] | 20.9 | 122 | 26 | 62.8 | – | – | –
CCc1cnc(NC[C@@H]2CCCN2C(=O)c2c(-c3ccccc3)nn3c2COCC3)nc1 [Example 3] | 14.2 | – | – | 14 | – | – | –
CCc1cnc(NC[C@@H]2[C@H](C)CCCN2C(=O)c2c(-c3ccccc3)nn3c2COCC3)nc1 [Example 5] | 0.4 | 136 | 29 | 71 | – | – | –
C[C@@H]1CCCN(C(=O)c2c(-c3ccccc3)nn3ccccc23)[C@@H]1CNc1ccc(C(F)(F)F)cn1 [Example 6] | 38.5 | 8 | 1.7 | 87.6 | – | – | –
C[C@@H]1CCCN(C(=O)c2c(-c3ccccc3)nn3c2COCC3)[C@@H]1CNc1ccc(C(F)(F)F)cn1 [Example 7] | 2.44 | 9 | 2 | 80.1 | – | – | –
C[C@@H]1CCCN(C(=O)c2c(-c3ccccc3)nc3ccccn23)[C@@H]1CNc1ccc(C(F)(F)F)cn1 [Example 8] | 13.8 | 5 | 1 | 86.1 | – | – | –
O=C(c1c(-c2ccccc2)nn2ccccc12)N1CCC[C@H]1CNc1ccc(C(F)(F)F)cn1 [Example 10] | 43.5 | 3.5 | 0.7 | 86.9 | – | – | –
O=C(c1c(-c2ccccc2)nn2ccccc12)N1CCC[C@H]1Cn1ccc(-c2ccccc2)n1 [Example 13] | 78.5 | – | – | 96.6 | 70 | 9 | –
O=C(c1c(-c2ccccc2)nn2c1COCC2)N1CCC[C@H]1COc1ccc(C(F)(F)F)cn1 [Example 17] | 5.78 | – | – | 45.1 | – | – | –
O=C(c1c(-c2ccccc2)nn2ccccc12)N1CCC[C@H]1COc1ccc(C(F)(F)F)cn1 [Example 20] | 49.6 | 11 | 2 | 84.9 | – | – | –
Orexin A: excitatory hypothalamic neuropeptide, a 33 amino acid peptide; endogenous ligand of OX1R and OX2R (QPLPDCCRQKTCSCRLYELLHGAGNHAAGILTL; Orexin-A; UniProt O43612 34-66, looked up) | – | – | – | – | – | – | about 100 fold
